From patent US4000297A, “N-p-chlorobenzoyl tryptophane, salts and compositions thereof” (priority 1971, dated 1976) come the findings set out here.

In series [1] the test system is gastric lesions from Indomethacin. In words: Protective activity against gastric lesions due to Indomethacin. The class given is in vivo, rats. To be noted: oral. As to the method:
The activity is defined as the dose in mg/kg of body weight to the animal, which prevents in 50% of the treated subjects arising of lesions due to Indomenthacin.
The protective preparations are administered orally in aqueous suspension.

For series [2], the system named is transit through the stomach and intestine. In words: Anti-spastic activity, vegetable carbon (charcoal) test, rate of transit through the stomach and intestine. The class given is in vivo, mice. To be noted: for Antispastic activity, in words: in vivo; for ED50: Mus musculus, 2 h. As to the method:
Particularly marked is the anti-spastic activity which the present compounds exercise on the entire digestive system. Measured in the mouse, using the vegetable carbon test (rate of transit through the stomach and intestine), this activity is in some cases comparatively greater than the anti-secretive activity (Table 3).
(*)The antispastic activity is measured in mice of an average weight of […]
± 3 g by administering a suspension of charcoal in gum arabic and
checking after two hours whether the charcoal has reached the initial
portion of the colon. In non-treated subjects the charcoal reaches this
transit of the charcoal. Evaluation of the results is effected as
ED50 in mg/kg body weight of the animal, i.e., the dose at which the […]

Series [3] can be described thus: Stability in conventional preservation tests and light sensitiveness. The class given is physicochemical. To be noted: oral forms (capsules, tablets).
Series [4] relates to gastric secretion. The experiment in a line: Comparison of antisecretive activity, rats with tied pylorus, oral aqueous suspension. To be noted: oral; for ED50: Rattus norvegicus, po, read-out: Antisecretive activity (dose which reduces the gastric secretion by 50%). The class given is in vivo.
Series [5] in a line: Tolerability in humans, prolonged oral administration. The class given is in vivo. Conditions: several weeks, 500 to 1600 mg.
The nature of series [6]: Solubility. The class given is physicochemical. To be noted: for Solubility in water: in words.
Series [7] relates to gastric secretion. In words: Anti-secretive activity, oral (comparison of iv and oral therapeutic coefficient). The class given is in vivo. Conditions: oral (Table 2). An excerpt: | *6 Anti-secretive activity ED50 oral | *7 Therapeutic coefficient oral
The test system of series [8] is gastric secretion. In words: Anti-secretive activity in the rat by gastric stimulus, oral. To be noted: oral (Table 1), read-out: Activity B: anti-secretive activity ED50. The class given is in vivo.
Protocol: *3 Anti-secretive activity in the rat by gastric stimulus, ED50 mg/k
Series [9] deals with gastric secretion. The experiment in a line: Anti-secretive activity in the rat with lig. pylorus, iv. The class given is in vivo.
The conditions of series [10]: rat, in vivo, po.
Series [11] in a line: Acute toxicity (DL50) in the mouse. The class given is in vivo. To be noted: in vivo. From the text:
*1 DL50 in the mouse mg/kg iv.
Examples of differences between toxicity (DL50 in
the mouse) by intravenous administration and oral
administration in mg/kg. Variation in therapeutic

For series [12] the following is noted: dog, in vivo, po.

Structures can show the parent of a compound that is named as a salt. Where two headings read alike, the source gives them in different places. A value given as a limit tells only on which side of the number the result lay.

Regarding `O=C(N[C@@H](Cc1c[nH]c2ccccc12)C(=O)O)c1ccc(Cl)cc1` [CR 501 calcium salt, N-p-chloro-benzoyl-L-tryptophane calcium salt], the “Protective activity ED50” value in series [1] (Indomethacin 16 mg/kg orally, 240 min, calcium salt) came out at 145 mg/kg/os. In series [2] (charcoal after two hours, orally (later Table 3), 120 min, calcium salt, 120 min), the “Antispastic activity ED50” value amounted to 210 mg/kg. For the same compound, in series [2] (mouse, calcium salt), the “Antispastic activity, in words” value is on record as “more particularly effective as antispastic”. Further, the Light sensitiveness entry in series [3] is “absence of light sensitiveness”. Further, the “Stability on conventional preservation tests” value in series [3] is “thorough stability”. Further, the “Antisecretive activity (dose which reduces the gastric secretion by 50%)” value was found to be 210 mg/kg in series [4] (2.5 hrs, calcium salt, 150 min); 165 mg/kg in series [4] (5 hrs, calcium salt, 300 min); 142 mg/kg in [4] (10 hrs, calcium salt, 600 min); 170 mg/kg in series [4] (15 hrs, calcium salt, 900 min). Besides, in series [5], the “Side effects in humans” value is “does not lead to any specific side effect”. For the same compound, the Solubility in acetone entry in series [6] (acetone) was “soluble”. Further, the Solubility in ethanol entry in series [6] (ethanol, listed as Example 53, calcium salt) is reported as “soluble”. The Solubility in methanol entry in series [6] (methanol, listed as Example 53, calcium salt) is recorded as “soluble”. The Solubility in water result in series [6] (listed as Example 53, calcium salt) was “Very slightly soluble”.
For `O=C(N[C@@H](Cc1c[nH]c2ccccc12)C(=O)O)c1ccc(Cl)cc1` [Ex.18 (CR501), N-p-chloro-benzoyl-L-tryptophane], the ED50 worked out at 150 mg/kg in series [7]; 234 mg/kg in [1] (Rattus norvegicus, po, 4 h, Indomethacin 16 mg/kg orally, read-out: Protective activity ED50); 82 mg/kg in series [2] (mouse, vegetable carbon test (Table 3), read-out: Anti-spastic activity ED50); 248 mg/kg in series [2] (po, charcoal after two hours, orally (later Table 3), read-out: Antispastic activity ED50); 110 mg/kg in series [8]; 171 mg/kg in series [4] (2.5 h, 2.5 hrs). In addition, the ED50 is 143 mg/kg in series [4] (5 h, 5 hrs); 150 mg/kg in series [4] (10 h, 10 hrs); 139 mg/kg in [9] (Rattus norvegicus, iv, compared with anti-spastic activity (Table 3), read-out: Anti-secretive activity ED50); 139 mg/kg in [9] (Rattus norvegicus, iv, i.v. (Table 2), read-out: Anti-secretive activity ED50 i.v.); 139 mg/kg in series [9] (rat with lig. pylorus, iv (Table 1), read-out: Activity A: anti-secretive activity ED50). The same compound registered a Therapeutic coefficient oral in series [7] of 7.3. In [1], the “Protective activity against Indomethacin lesions, in words” value was “efficient activity in preventing gastric lesions”. Further, the “Ratio 3/2” value in series [2] (anti-secretive ED50 / anti-spastic ED50 (Table 3)) is 1.7. In addition, the “Antispastic activity, in words” value in [2] (mouse) is “active as antispastic”. Further, in series [4], the “Start of antisecretive activity from administration” value was less than 5 h. Moreover, the “Antisecretive activity (dose which reduces the gastric secretion by 50%)” value in series [4] (15 hrs, 900 min) was found to be 361 mg/kg. The “Extent in time of antisecretive activity” value in series [4] (with a gradual sinking) is “up to 15 hours”. The “Therapeutic coefficient iv. 2/3” value in series [9] (iv, DL50 iv / ED50 iv (Table 2)) is on record as 1.9. Also, the “Acute and chronical toxicity” value in series [10] and in [12] was “without exhibiting any appreciable symptom of toxicity” each time. Moreover, the Solubility in water entry in series [6] (listed as CR 501) is recorded as “water-insoluble”; in series [6] (listed as CR501), “insoluble in water”. The LD50 in [11] (iv (Table 1), read-out: DL50 value) was 263 mg/kg; in series [11] (oral (Table 2), read-out: DL50 oral) it was 1100 mg/kg.
